Laboratory results reported in patent US20240158348A1, “HERBICIDAL CYCLIC AMIDES N-SUBSTITUTED WITH A HALOALKYLSULFONYLANILIDE GROUP” (FMC Corporation, priority 2021, published 2024).

Experiments:
Assay type in all cases: in vivo
corn (Zea mays) [1] = assay: Test C preemergence, corn; details: 0 is no effect, 100 is complete control
From the text: (§1) Seeds of plant species selected from blackgrass (Alopecurus myosuroides), corn (Zea mays), foxtail, giant (giant foxtail, Setaria faberi), goosegrass (Eleusine indica), kochia (Bassia scoparia), oat, wild (wild oat, Avena fatua), pigweed, palmer (palmer amaranth, Amaranthus palmeri), ragweed (common ragweed, Ambrosia artemisiifolia), ryegrass, Italian (Italian ryegrass, Lolium multiflorum), soybean (Glycine max) and wheat (Triticum aestivum) were planted into a blend of loam soil and sand and treated preemergence with a directed soil spray using test chemicals formulated in a non-phytotoxic solvent mixture which included a surfactant.
(§2) At the same time, plants selected from these crop and weed species and also galium (catchweed bedstraw, Galium aparine) and horseweed (Erigeron canadensis) were planted in pots containing the same blend of loam soil and sand and treated with postemergence applications of test chemicals formulated in the same manner. Plants ranged in height from 2 to 10 cm and were in the one- to two-leaf stage for the postemergence treatment. Treated plants and untreated controls were maintained in a greenhouse for 10 or 12 days, after which time all treated plants were compared to untreated controls and visually evaluated for injury. Plant response ratings, summarized in Table A, are based on a 0 to 100 scale where 0 is no effect and 100 is complete control. A dash (-) response means no test result.

[2] = tested on: foxtail, giant (giant foxtail, Setaria faberi); assay: Test C preemergence, giant foxtail; details: 0 is no effect, 100 is complete control
From the text: as §1, §2

[3] = tested on: goosegrass (Eleusine indica); assay: Test C preemergence, goosegrass; details: 0 is no effect, 100 is complete control
From the text: as §1, §2

kochia (Bassia scoparia) [4] = assay: Test C preemergence, kochia; details: 0 is no effect, 100 is complete control
From the text: as §1, §2

[5] = tested on: oat, wild (wild oat, Avena fatua); assay: Test C preemergence, wild oat; details: 0 is no effect, 100 is complete control
From the text: as §1, §2

[6] = tested on: pigweed, palmer (palmer amaranth, Amaranthus palmeri); assay: Test C preemergence, palmer amaranth; details: 0 is no effect, 100 is complete control
From the text: as §1, §2

[7] = tested on: ragweed (common ragweed, Ambrosia artemisiifolia); assay: Test C preemergence, ragweed; details: 0 is no effect, 100 is complete control
From the text: as §1, §2

[8] = tested on: ryegrass, Italian (Italian ryegrass, Lolium multiflorum); assay: Test C preemergence, Italian ryegrass; details: 0 is no effect, 100 is complete control
From the text: as §1, §2

soybean (Glycine max) [9] = assay: Test C preemergence, soybean; details: 0 is no effect, 100 is complete control
From the text: as §1, §2

[10] = tested on: wheat (Triticum aestivum); assay: Test C preemergence, wheat; details: 0 is no effect, 100 is complete control
From the text: as §1, §2

[11] = tested on: blackgrass (Alopecurus myosuroides); assay: Test C postemergence, blackgrass; details: visual injury, 0 to 100 scale (0 no effect, 100 complete control)
From the text: as §1, §2

corn (Zea mays) [12] = assay: Test C postemergence, corn; details: visual injury, 0 to 100 scale (0 no effect, 100 complete control)
From the text: as §1, §2

[13] = tested on: foxtail, giant (giant foxtail, Setaria faberi); assay: Test C postemergence, giant foxtail; details: visual injury, 0 to 100 scale (0 no effect, 100 complete control)
From the text: as §1, §2

[14] = tested on: goosegrass (Eleusine indica); assay: Test C postemergence, goosegrass; details: visual injury, 0 to 100 scale (0 no effect, 100 complete control)
From the text: as §1, §2

kochia (Bassia scoparia) [15] = assay: Test C postemergence, kochia; details: visual injury, 0 to 100 scale (0 no effect, 100 complete control)
From the text: as §1, §2

[16] = tested on: oat, wild (wild oat, Avena fatua); assay: Test C postemergence, wild oat; details: visual injury, 0 to 100 scale (0 no effect, 100 complete control)
From the text: as §1, §2

[17] = tested on: pigweed, palmer (palmer amaranth, Amaranthus palmeri); assay: Test C postemergence, palmer amaranth; details: visual injury, 0 to 100 scale (0 no effect, 100 complete control)
From the text: as §1, §2

[18] = tested on: ragweed (common ragweed, Ambrosia artemisiifolia); assay: Test C postemergence, ragweed; details: visual injury, 0 to 100 scale (0 no effect, 100 complete control)
From the text: as §1, §2

[19] = tested on: ryegrass, Italian (Italian ryegrass, Lolium multiflorum); assay: Test C postemergence, Italian ryegrass; details: visual injury, 0 to 100 scale (0 no effect, 100 complete control)
From the text: as §1, §2

soybean (Glycine max) [20] = assay: Test C postemergence, soybean; details: visual injury, 0 to 100 scale (0 no effect, 100 complete control)
From the text: as §1, §2

[21] = tested on: wheat (Triticum aestivum); assay: Test C postemergence, wheat; details: visual injury, 0 to 100 scale (0 no effect, 100 complete control)
From the text: as §1, §2

[22] = tested on: galium (catchweed bedstraw, Galium aparine); assay: Test C postemergence, galium; details: visual injury, 0 to 100 scale (0 no effect, 100 complete control)
From the text: as §1, §2

[23] = tested on: horseweed (Erigeron canadensis); assay: Test C postemergence, horseweed; details: visual injury, 0 to 100 scale (0 no effect, 100 complete control)
From the text: as §1, §2

[24] = tested on: barnyardgrass (Echinochloa crusgalli); assay: Test D flooded paddy test, barnyardgrass; design: key: 0 = no effect, 100 = complete control; details: 250 g ai/ha, Flood; applied to paddy water at 2-leaf stage; visual rating after 13 days; scale 0 (no effect) to 100 (complete control)
Experimental: (§3) Plant species in the flooded paddy test selected from barnyardgrass (Echinochloa crusgalli), ducksalad (Heteranthera limosa), rice (Oryza sativa), and sedge, umbrella (small-flower umbrella sedge, Cyperus difformis) were grown to the 2-leaf stage for testing. At time of treatment, test pots were flooded to 3 cm above the soil surface, treated by application of test compounds directly to the paddy water, and then maintained at that water depth for the duration of the test. Treated plants and controls were maintained in a greenhouse for 13 days, after which time all species were compared to controls and visually evaluated. Plant response ratings, summarized in Table B, are based on a scale of 0 to 100 where 0 is no effect and 100 is complete control. A dash (-) response means no test result.

[25] = tested on: ducksalad (Heteranthera limosa); assay: Test D flooded paddy test, ducksalad; design: key: 0 = no effect, 100 = complete control; details: 250 g ai/ha, Flood; applied to paddy water at 2-leaf stage; visual rating after 13 days; scale 0 (no effect) to 100 (complete control)
Experimental: as §3

rice (Oryza sativa) = assay: Test D flooded paddy test, rice; design: key: 0 = no effect, 100 = complete control; details: 250 g ai/ha, Flood; applied to paddy water at 2-leaf stage; visual rating after 13 days; scale 0 (no effect) to 100 (complete control)
Experimental: as §3

[26] = tested on: sedge, umbrella (small-flower umbrella sedge, Cyperus difformis); assay: Test D flooded paddy test, umbrella sedge; design: key: 0 = no effect, 100 = complete control; details: 250 g ai/ha, Flood; applied to paddy water at 2-leaf stage; visual rating after 13 days; scale 0 (no effect) to 100 (complete control)
Experimental: as §3

Cc1c(N2CCC(OC3CCC3)C2=O)cc(N(COC(=O)C(C)(C)C)S(=O)(=O)C(F)(F)F)c(C)c1C (centres unmarked) [Compound 51]
Plant response rating (0 to 100 scale), Corn (corn (Zea mays) [1]; 31 g ai/ha Preemergence): 0
Plant response rating (0 to 100 scale), Corn (corn (Zea mays) [1]; 125 g ai/ha Preemergence): 40
Plant response rating (0 to 100 scale), Foxtail, Giant ([2]; 31 g ai/ha Preemergence): 10
Plant response rating (0 to 100 scale), Foxtail, Giant ([2]; 125 g ai/ha Preemergence): 90
Plant response rating (0 to 100 scale), Goosegrass ([3]; 31 g ai/ha Preemergence): 0
Plant response rating (0 to 100 scale), Goosegrass ([3]; 125 g ai/ha Preemergence): 90
Plant response rating (0 to 100 scale), Kochia (kochia (Bassia scoparia) [4]; 31 g ai/ha Preemergence): 30
Plant response rating (0 to 100 scale), Kochia (kochia (Bassia scoparia) [4]; 125 g ai/ha Preemergence): 80
Plant response rating (0 to 100 scale), Oat, Wild ([5]; 31 g ai/ha Preemergence): 20
Plant response rating (0 to 100 scale), Oat, Wild ([5]; 125 g ai/ha Preemergence): 50
Plant response rating (0 to 100 scale), Pigweed, Palmer ([6]; 31 g ai/ha Preemergence): 20
Plant response rating (0 to 100 scale), Pigweed, Palmer ([6]; 125 g ai/ha Preemergence): 60
Plant response rating (0 to 100 scale), Ragweed ([7]; 31 g ai/ha Preemergence): 0
Plant response rating (0 to 100 scale), Ragweed ([7]; 125 g ai/ha Preemergence): 70
Plant response rating (0 to 100 scale), Ryegrass, Italian ([8]; 31 g ai/ha Preemergence): 40
Plant response rating (0 to 100 scale), Ryegrass, Italian ([8]; 125 g ai/ha Preemergence): 100
Plant response rating (0 to 100 scale), Soybean (soybean (Glycine max) [9]; 31 g ai/ha Preemergence): 0
Plant response rating (0 to 100 scale), Soybean (soybean (Glycine max) [9]; 125 g ai/ha Preemergence): 30
Plant response rating (0 to 100 scale), Wheat ([10]; 31 g ai/ha Preemergence): 10
Plant response rating (0 to 100 scale), Wheat ([10]; 125 g ai/ha Preemergence): 60
Blackgrass plant response rating ([11]; 31 g ai/ha Postemergence): 10
Blackgrass plant response rating ([11]; 125 g ai/ha Postemergence): 20
Corn plant response rating (corn (Zea mays) [12]; 31 g ai/ha Postemergence): 0
Corn plant response rating (corn (Zea mays) [12]; 125 g ai/ha Postemergence): 60
Foxtail, Giant plant response rating ([13]; 31 g ai/ha Postemergence): 0
Foxtail, Giant plant response rating ([13]; 125 g ai/ha Postemergence): 40
Goosegrass plant response rating ([14]; 31 g ai/ha Postemergence): 0
Goosegrass plant response rating ([14]; 125 g ai/ha Postemergence): 20
Kochia plant response rating (kochia (Bassia scoparia) [15]; 31 g ai/ha Postemergence): 30
Kochia plant response rating (kochia (Bassia scoparia) [15]; 125 g ai/ha Postemergence): 70
Oat, Wild plant response rating ([16]; 31 g ai/ha Postemergence): 0
Oat, Wild plant response rating ([16]; 125 g ai/ha Postemergence): 30
Pigweed, Palmer plant response rating ([17]; 31 g ai/ha Postemergence): 10
Pigweed, Palmer plant response rating ([17]; 125 g ai/ha Postemergence): 60
Ragweed plant response rating ([18]; 31 g ai/ha Postemergence): 60
Ragweed plant response rating ([18]; 125 g ai/ha Postemergence): 80
Ryegrass, Italian plant response rating ([19]; 31 g ai/ha Postemergence): 20
Ryegrass, Italian plant response rating ([19]; 125 g ai/ha Postemergence): 50
Soybean plant response rating (soybean (Glycine max) [20]; 31 g ai/ha Postemergence): 30
Soybean plant response rating (soybean (Glycine max) [20]; 125 g ai/ha Postemergence): 60
Wheat plant response rating ([21]; 31 g ai/ha Postemergence): 20
Wheat plant response rating ([21]; 125 g ai/ha Postemergence): 70
Galium plant response rating ([22]; 31 g ai/ha Postemergence): 60
Galium plant response rating ([22]; 125 g ai/ha Postemergence): 90
Horseweed plant response rating ([23]; 31 g ai/ha Postemergence): 60
Horseweed plant response rating ([23]; 125 g ai/ha Postemergence): 90
Plant response rating, Barnyardgrass [24]: 100
Plant response rating, Ducksalad [25]: 85
Plant response rating, Rice (rice (Oryza sativa)): 10
Plant response rating, Sedge, Umbrella [26]: 90
